The source of these data is patent US20220251084A1, “PROGRANULIN MODULATORS AND METHODS OF USING THE SAME” (ARKUDA THERAPEUTICS, priority 2019, published 2022).

The test system of the first test is progranulin (PGRN) secretion, BV-2 cells. The test can be described thus: PGRN assay: progranulin induction cellular assay (ELISA of secreted mouse PGRN). The format is cell-based.
Conditions: not given
In short, it runs like this:
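Progranulin induction measured in BV-2 cells plated at about 80% confluence the day before, given 1 h to attach, then incubated 16 h. Secreted mouse PGRN quantified by ELISA.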
For orientation: In an ELISA, binding on a coated surface is turned into a signal by an enzyme label.
As a reminder, the EC50 is the concentration needed to bring the measured effect to its halfway point. In turn, `N#Cc1ccc2c(c1)CCN(C(=O)O[C@@H]1CN3CCC1CC3)[C@H]2c1ccc(F)cc1` [Compound 2033] yielded an EC50 of more than 10000 nM.

As for `Fc1ccc(C2c3ccccc3CCN2C(C[C@@H]2CN3CCC2CC3)C(F)(F)F)cc1` (stereo partly drawn) [Compound 2133], it took 9760 nM to reach a half-maximal effect (EC50).

Still in this test, the particulars now being: Mus musculus, BV-2.
As for `CS(=O)(=O)c1ccc2c(c1)[C@H](c1ccc(F)cc1)N(C(=O)O[C@@H]1CN3CCC1CC3)CC2` [Compound 2031], a half-maximal response (EC50) required 5750 nM.

On to `CNC(=O)c1ccc2c(c1)[C@@H](c1ccc(F)cc1)N(C(=O)O[C@@H]1CN3CCC1CC3)CC2` [Compound 2066], for which the EC50 was more than 10000 nM.

The test is the same for the next values; noted with them: Mus musculus, BV-2, PGRN assay, Table C; secreted mouse PGRN in cell culture medium, ELISA.
`O=C(OCC12CCN(CC1)CC2)N1CCc2ccccc2[C@@H]1c1cc(F)c(F)c(F)c1` [Compound 2147] yielded an EC50 of 4740 nM.

Regarding `CN1C2COCC1CC(OC(=O)N1CCc3ccccc3[C@@H]1c1ccc(F)cc1)C2` (stereo partly drawn) [Compound 2067, (1 S)-9′-methyl-3′-oxa-9′-azabicyclo[3.3.1]nonan-7′-yl-1-(4-fluorophenyl)-3,4-dihydroisoquinoline-2(1H)-carboxylate], the EC50 was 240 nM.

In the case of `CO[C@@H](CC12CCN(CC1)CC2)C(=O)N1CCc2ccccc2[C@@H]1c1ccc(F)cc1` [Compound 2027], the EC50 is more than 10000 nM.

Consider `CN1CC2CCC(C1)C2OC(=O)N1CCc2ccccc2[C@@H]1c1ccc(F)cc1` (single isomer, unassigned) [Compound 2093], for which the concentration giving a half-maximal response (EC50) came out at 379 nM.

Turning to `C#CCOc1ccc2c(c1)[C@H](c1ccc(F)cc1)N(C(=O)OCC13CCN(CC1)CC3)CC2` [Compound 2052, (S)-quinuclidin-4-ylmethyl 1-(4-fluorophenyl)-7-(prop-2-ynyloxy)-3,4-dihydroisoquinoline-2(1H)-carboxylate], the EC50 amounted to 6820 nM.

`O=C(OCC12CCN(CC1)CC2)N1CCc2ccccc2[C@@H]1c1cc(F)cc(F)c1` (single isomer, unassigned) [Compound 2140, quinuclidin-4-ylmethyl-1-(3,5-difluorophenyl)-3,4-dihydroisoquinoline-2(1H)-carboxylate] displayed an EC50 of 9910 nM.

On to `CN(CC12CCN(CC1)CC2)C(=O)N1CCc2ccccc2[C@@H]1c1ccc(F)cc1` [Compound 2013], for which the EC50 is more than 10000 nM.

On to `CN1CCC(COC(=O)N2CCc3ccccc3[C@@H]2c2cc(F)cc(F)c2)CC1` [Compound 2108], for which the EC50 was more than 3160 nM.

Compound `CS(=O)(=O)c1ccc2c(c1)[C@H](c1ccc(F)cc1)N(C(=O)N[C@@H]1CN3CCC1CC3)CC2` [Compound 2056] had an EC50 of more than 10000 nM.

`C#CCOc1ccc2c(c1)CCN(C(=O)OCC13CCN(CC1)CC3)[C@@H]2c1ccc(F)cc1` [Compound 2079] gave an EC50 of 4830 nM.

Take `CN1[C@H]2COC[C@H]1CC(OC(=O)N1CCc3ccccc3[C@@H]1c1ccc(F)cc1)C2` (single isomer, unassigned) [Compound 2099]: a half-maximal response (EC50) required 1880 nM.

`O=C(O[C@@H]1[C@@H]2CC[C@H]1CNC2)N1CCc2ccccc2[C@@H]1c1ccc(F)cc1` (single isomer, unassigned) [Compound 2103] showed an EC50 of 4280 nM.

Turning to `CN1CCO[C@@H](COC(=O)N2CCc3ccccc3[C@@H]2c2ccc(F)cc2)C1` [Compound 2005], the EC50 is 587 nM.

For `CN1C2CCC1CC(OC(=O)N1CCc3ccccc3[C@@H]1c1ccc(F)cc1)C2` (stereo partly drawn) [Compound 2007], a half-maximal response (EC50) required 1190 nM.

Compound `CN1CC2(CC(OC(=O)N3CCc4ccccc4[C@@H]3c3ccc(F)cc3)C2)C1` [Compound 2019] had an EC50 of 965 nM.

`O=C(NCC1CCNCC1)N1CCc2ccccc2[C@@H]1c1ccc(F)cc1` [Compound 2165] gave an EC50 of more than 10000 nM.

`CN1C[C@H]2CC[C@@H](C1)[C@H]2OC(=O)N1CCc2ccccc2[C@@H]1c1ccc(F)cc1` [Compound 2008] yielded an EC50 of 559 nM.

As for `COC(=O)c1ccc2c(c1)CCN(C(=O)NCC13CCN(CC1)CC3)[C@H]2c1ccc(F)cc1` [Compound 2068], the EC50 stood at 3370 nM.

Consider `CN1CCC(COC(=O)N2CCc3ccccc3[C@H]2c2cc(F)c(F)c(F)c2)CC1` [Compound 2143], for which a half-maximal effect (EC50) was put at 7750 nM.

In the case of `CN1CCC(F)(COC(=O)N2CCc3ccccc3[C@@H]2c2ccc(F)cc2)CC1` [Compound 2114], the EC50 turned out to be 401 nM.

Compound `C#CCOc1ccc2c(c1)[C@H](c1ccc(F)cc1)N(C(=O)NCC13CCN(CC1)CC3)CC2` [Compound 2192, (S)-1-(4-fluorophenyl)-7-(prop-2-yn-1-yloxy)-N-(quinuclidin-4-ylmethyl)-3,4-dihydroisoquinoline-2(1H)-carboxamide] had an EC50 of more than 10000 nM.

Consider `CN1C[C@H]2CC[C@@H](OC(=O)N3CCc4ccccc4[C@@H]3c3ccc(F)cc3)[C@H]2C1` (relative stereo) [Compound 2061, (1 S)-(rel-(3′aR,6′aS)-2′-methyloctahydrocyclopenta[c]pyrrol-4-yl)-1-(4-fluorophenyl)-3,4-dihydroisoquinoline-2(1H)-carboxylate], for which it took 321 nM to reach a half-maximal effect (EC50).

With `O=C(OCC12CCN(CC1)CC2)N1CCc2ccccc2[C@@H]1c1cccc(F)c1F` [Compound 2112], the EC50 amounted to 8270 nM.

With `C#CCOc1ccc2c(c1)CCN(C(=O)NCC13CCN(CC1)CC3)[C@@H]2c1ccc(F)cc1` [Compound 2085], the EC50 was determined as 4990 nM.

As for `N#Cc1ccc2c(c1)CCN(C(=O)N[C@@H]1CN3CCC1CC3)[C@H]2c1ccc(F)cc1` [Compound 2014], the EC50 is 2320 nM.

Turning to `O=C(OCC12CCN(CC1)CC2)N1CCc2ccccc2[C@H]1c1cc(F)cc(F)c1` (single isomer, unassigned) [Compound 2141, quinuclidin-4-ylmethyl-1-(3,5-difluorophenyl)-3,4-dihydroisoquinoline-2(1H)-carboxylate], the EC50 was more than 10000 nM.

`C#CCOc1ccc2c(c1)CCN(C(=O)N[C@@H]1CN3CCC1CC3)[C@H]2c1ccc(F)cc1` [Compound 2063] yielded an EC50 of more than 10000 nM.

`O=C(N[C@H]1CCCNC1)N1CCc2ccccc2[C@@H]1c1ccc(F)cc1` [Compound 2171] came in with an EC50 of 130 nM.

As for `CN1CCC(CCOC(=O)N2CCc3ccccc3[C@@H]2c2ccc(F)cc2)CC1` [Compound 2163], the EC50 was more than 10000 nM.

Still in this test, the particulars now being: Mus musculus, BV-2, PGRN assay, Table D; secreted mouse PGRN in cell culture medium, ELISA.
Take `CN1CCCN(C(=O)N2CCc3ccccc3[C@@H]2c2ccc(F)cc2)CC1` [Compound 2269, (S)-(1-(4-fluorophenyl)-3,4-dihydroisoquinolin-2(1H)-yl)(4-methyl-1,4-diazepan-1-yl)methanone]: it took 656 nM to reach a half-maximal effect (EC50).

For the compound `CN1CC[C@H](NC(=O)N2CCc3ccccc3[C@@H]2c2ccc(F)cc2)C1` [Compound 2237, (S)-1-(4-fluorophenyl)-N—((S)-1-methylpyrrolidin-3-yl)-3,4-dihydroisoquinoline-2(1H)-carboxamide], the EC50 is 430 nM.

On to `CN1CCC(OC2(C(=O)N3CCc4ccccc4[C@@H]3c3ccc(F)cc3)CC2)CC1` [Compound 2247], for which the EC50 is more than 10000 nM.

With `O=C(N1CCN2CCC1CC2)N1CCc2ccccc2[C@@H]1c1ccc(F)cc1` [Compound 2252], the EC50 amounted to 120 nM.

With `CN1CCC(C2(OC(=O)N3CCc4ccccc4[C@@H]3c3ccc(F)cc3)CC2)CC1` [Compound 2215], the midpoint of the response, the EC50, lay at 2700 nM.

`O=C(N1CC[C@@]2(CNCCO2)C1)N1CCc2ccccc2[C@H]1c1ccc(F)cc1` (single isomer, unassigned) [Compound 2323] gave an EC50 of 8870 nM.

With `O=C(NC[C@H]1CCCN1)N1CCc2ccccc2[C@H]1c1ccc(F)cc1` (single isomer, unassigned) [Compound 2219], it took 6210 nM to reach a half-maximal effect (EC50).

`CN1[C@H]2CC[C@@H]1[C@@H](NC(=O)N1CCc3ccccc3[C@@H]1c1ccc(F)cc1)C2` [Compound 2226] registered an EC50 of 2680 nM.

`NC[C@H]1CN(C(=O)N2CCc3ccccc3[C@@H]2c2ccc(F)cc2)CCO1` [Compound 2303]: a half-maximal effect (EC50) was put at 329 nM.

As to `O=C(O[C@@H]1CNCC12CC2)N1CCc2ccccc2[C@@H]1c1ccc(F)cc1` (stereo in doubt) [Compound 2310, 5-azaspiro[2.4]heptan-7-yl-(1 S)-1-(4-fluorophenyl)-3,4-dihydroisoquinoline-2(1H)-carboxylate], the response was half-maximal at 501 nM (EC50).

Regarding `O=C(NC[C@@H]1CCCN1)N1CCc2ccccc2[C@@H]1c1ccc(F)cc1` [Compound 2217], the EC50 came to 3940 nM.

Compound `CN1CC[C@H](O)[C@@H](OC(=O)N2CCc3ccccc3[C@@H]2c2ccc(F)cc2)[C@@H]1CO` (single isomer, unassigned) [Compound 2305] had an EC50 of 5870 nM.

`CN1CC[C@H](OC(=O)N2CCc3ccccc3[C@@H]2c2ccc(F)cc2)C1` [Compound 2251] had an EC50 of 110 nM.

With `O=C(N1CC[C@@]2(CNCCO2)C1)N1CCc2ccccc2[C@@H]1c1ccc(F)cc1` (single isomer, unassigned) [Compound 2324], the EC50 worked out at 742 nM.

Compound `O=C(NC[C@H]1CCCN1)N1CCc2ccccc2[C@@H]1c1ccc(F)cc1` [Compound 2216] returned an EC50 of 2670 nM.

As for `O=C(OC[C@H]1CCN1)N1CCc2ccccc2[C@@H]1c1ccc(F)cc1` [Compound 2240], the EC50 is 2390 nM.

Take `O=C(O[C@H]1CNCC12CC2)N1CCc2ccccc2[C@@H]1c1ccc(F)cc1` (stereo in doubt) [Compound 2309, 5-azaspiro[2.4]heptan-7-yl-(1 S)-1-(4-fluorophenyl)-3,4-dihydroisoquinoline-2(1H)-carboxylate]: the EC50 was determined as 600 nM.

`N[C@@H]1CCN(C(=O)N2CCc3ccccc3[C@H]2c2ccc(F)cc2)C1` [Compound 2286] showed an EC50 of 2840 nM.

The same test, now with this note: PGRN assay, Table C; secreted mouse PGRN in cell culture medium, ELISA.
`O=C(OC1CNC1)N1CCc2ccccc2[C@@H]1c1ccc(F)cc1` [Compound 2177] had an EC50 of more than 3160 nM.

The compound `O=C(OC1CCNCC1)N1CCc2ccccc2[C@@H]1c1ccc(F)cc1` [Compound 2161] displayed an EC50 of more than 10000 nM.

The same test, now with this note: PGRN assay, Table D; secreted mouse PGRN in cell culture medium, ELISA.
Turning to `CN(C(=O)N1CCc2ccccc2[C@H]1c1ccc(F)cc1)[C@H]1CCNC1` [Compound 2254], the EC50 is 2910 nM.
